This note sets out measurements from PMC11858653, “Design, Synthesis and Bioactive Evaluation of Topo I/c-MYC Dual Inhibitors to Inhibit Oral Cancer via Regulating the PI3K/AKT/NF-κB Signaling Pathway” (Molecules, 2025).

In one assay the test system is Cal27. The assay is described as follows: MTT antiproliferative assay, Cal27. It is filed as cell-based, human. Conditions: mean ± SD. How it is done:
(§1) Having evaluated their Topo I inhibitory activity, the antiproliferative activity of the target compounds against some common human cancer cell lines (NCI-H460, A549, ACHN, Cal27 and MGC-803) and one normal cell line (SV-HUC-1) was tested via an MTT assay. TPT, the first Topo I inhibitor approved in clinics, and cisplatin (CDDP), a commonly selected anticancer drug for treating head and neck malignancies, were used as the positive controls.
(§2) Human oral cancer Cal27 cells were seeded in 96-well plates and incubated overnight in 180 μL of medium containing 10% Fetal Bovine Serum (Gibco, San Francisco, CA, USA). […] Then, 10 μL of 5 mg/mL MTT solution was added to each well and incubated at 37 °C for 4 h. After 4 h of incubation at 37 °C, the MTT-containing medium was removed and DMSO was added to each well and the absorbance at 570 nm and 630 nm was measured using a microplate reader (CYTATION 3, Burton, Westwood, NJ, USA). Survival/% = (mean OD of experimental group/mean OD of control group) × 100%. Each test was repeated at least three times.

For assay [1], the system named is human oral cancer Cal27 xenograft tumor. The assay is described as follows: In vivo antitumor activity, Cal27 xenograft. Particulars: 2 mg/kg i.p. once every other day, 21 days. Set-up: species or system BALB/c nude mice. How it is done: Nude mouse organ and tumor tissues fixed with neutral formalin solution were paraffin-embedded according to the conventional processing method. Sections were cut to a thickness of approximately 5 μm, placed on glass slides and dewaxed in an oven at 60 °C, stained for H&E and immunohistochemistry and finally visualized with the Cytation 5 imaging system.
For this assay, 130 SPF-grade BALB/c mice (female, 4–6 weeks old, 18–20 g) were obtained from Chang Zhou Cavens Laboratory Animal Ltd. (Changzhou, China). The in vivo activity experiments were commissioned by Nanjing OG Pharmaceuticals, Co., Ltd. (Nanjing, China) All mice were housed in plastic cages, fed, and watered under standard conditions and air filtration (22 ± 2 °C; 12 h light/dark cycles). Under aseptic conditions, human oral cancer Cal27 cells were inoculated subcutaneously in the right axilla of BALB/c nude mice. When the tumors had grown to about 85 mm^3, 24 […] mice with good growth status and good homogeneity of tumor size were selected and randomly divided into the following four groups of six mice each: (1) the model group; (2) the low-dose group; (3) the high-dose group; and (4) the positive drug group. The drug dose in the low-dose group was 10 mg/kg, which was injected intraperitoneally once every other day, for the duration of 21 days of administration; the drug dose in the high-dose group was 20 mg/kg, which was injected intraperitoneally once every other day, for the duration of 21 days of administration; and the drug dose in the cisplatin group was 2 mg/kg, which was injected intraperitoneally once every other day, for the duration of 21 days of administration. Normal tissues of the heart, liver, spleen, lung and kidney and half of the tumor tissues were fixed with 4% formalin solution and embedded in paraffin for histological analysis; the other half of the tumor tissues were preserved in liquid nitrogen, and the supernatant was extracted after milling the tissues and detected by Western blot.

The subject of a further assay is MGC-803. The assay is described as follows: MTT antiproliferative assay, MGC-803. It is filed as cell-based, human. Conditions: mean ± SD. How it is done:
as §1, §2

The next assay deals with ACHN. The assay is described as follows: MTT antiproliferative assay, ACHN. Conditions: 48 h, mean ± SD. The format is cell-based, human. As for the experimental part: as §1, §2
The test system of another assay is NCI-H460. The assay is described as follows: MTT antiproliferative assay, NCI-H460. The format is cell-based, human. Particulars: mean ± SD. As for the experimental part: as §1, §2
A further assay has as its system A549. The assay is described as follows: MTT antiproliferative assay, A549. It is filed as cell-based, human. Particulars: mean ± SD. As for the experimental part: as §1, §2
A further assay relates to Cal27 cells. The assay is described as follows: MTT cell survival with autophagy inhibitor CQ. Conditions: Cal27, 20 μM alone. It is filed as cell-based, human. As for the experimental part:
Meanwhile, to further confirm that compound 7be could induce autophagic death in Cal27 cells, we used a classical autophagy inhibitor, chloroquine (CQ), to evaluate the role of autophagy in compound 7be-mix-induced cell death.
Human oral cancer Cal27 cells were seeded in 96-well plates and incubated overnight in 180 μL of medium containing 10% Fetal Bovine Serum (Gibco, San Francisco, CA, USA). On the following day, compounds at final concentrations of 2.5, 5, 10 and 20 μM were added to each well and incubated for 48 h. Then, 10 μL of 5 mg/mL MTT solution was added to each well and incubated at 37 °C for 4 h. After 4 h of incubation at 37 °C, the MTT-containing medium was removed and DMSO was added to each well and the absorbance at 570 nm and 630 nm was measured using a microplate reader (CYTATION 3, Burton, Westwood, NJ, USA). Survival/% = (mean OD of experimental group/mean OD of control group) × 100%. Each test was repeated at least three times.

Another assay has as its system SV-HUC-1. The assay is described as follows: MTT assay, normal cell line SV-HUC-1. It is filed as cell-based. Conditions: mean ± SD. How it is done: as §1, §2
A further assay concerns the target T1, Topo I (Homo sapiens, UniProt P11387).
T1 sequence (P11387 1-765): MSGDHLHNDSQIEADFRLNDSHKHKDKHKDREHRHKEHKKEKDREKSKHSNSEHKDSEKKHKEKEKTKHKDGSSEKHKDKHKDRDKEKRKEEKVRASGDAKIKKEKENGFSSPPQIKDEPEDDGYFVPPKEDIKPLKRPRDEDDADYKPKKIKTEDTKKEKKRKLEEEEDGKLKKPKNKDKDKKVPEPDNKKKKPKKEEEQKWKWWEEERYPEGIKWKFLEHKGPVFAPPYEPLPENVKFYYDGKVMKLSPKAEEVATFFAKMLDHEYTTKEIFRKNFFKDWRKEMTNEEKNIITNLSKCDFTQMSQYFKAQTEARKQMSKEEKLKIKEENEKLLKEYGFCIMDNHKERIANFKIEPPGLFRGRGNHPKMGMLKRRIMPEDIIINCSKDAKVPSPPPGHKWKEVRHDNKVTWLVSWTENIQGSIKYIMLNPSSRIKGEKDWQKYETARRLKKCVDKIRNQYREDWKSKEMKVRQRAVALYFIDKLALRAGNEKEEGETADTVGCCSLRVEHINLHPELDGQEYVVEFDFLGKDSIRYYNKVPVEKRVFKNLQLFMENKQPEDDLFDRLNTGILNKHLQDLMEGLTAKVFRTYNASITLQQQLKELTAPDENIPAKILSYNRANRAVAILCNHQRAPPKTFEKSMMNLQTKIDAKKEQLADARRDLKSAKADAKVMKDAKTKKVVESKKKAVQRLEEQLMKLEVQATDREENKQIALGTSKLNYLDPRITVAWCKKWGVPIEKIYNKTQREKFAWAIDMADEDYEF
The assay is described as follows: Topo I inhibitory activity, agarose gel electrophoresis (pBR322). It is filed as biochemical. Particulars: 20 μM. As for the experimental part: In this assay, 250 ng of pBR322 plasmid DNA, different concentrations of the compounds to be tested, 0.1% BSA 1 μL, 10× Topo I buffer, Topo I and add 1× TAE buffer were mixed to a final volume of 20 μL. The reaction was carried out for 30 min at 37 °C in a water bath. After the reaction was terminated, 4 μL of each of the 6× DNA Sampling Buffers were added to the gel. The pBR322 plasmid DNA alone was used as a negative control, and camptothecin was used as a positive control. Finally, the samples were loaded onto the gels and electrophoresed for about 1.5 h. After electrophoresis, the gel blocks were incubated in 1 mg/L ethidium bromide (EB) for 30 min and then visualized on the gel system.

`[NH2][Pt]([NH2])([Cl])[Cl]` [CDDP, cisplatin, reference compound]: the IC50 with Cal27 (48 h) is 8.81 ± 1.73 µM; with MGC-803 (48 h) it was 12.3 ± 0.8 µM; in the assay on ACHN it was 12.4 ± 1.31 µM; with NCI-H460 (48 h), 12.2 ± 1.01 µM; in the assay with A549 (48 h), 8.69 ± 1.05 µM. Besides, the “relative tumor proliferation rate” value in assay [1] is on record as 39.8%. In addition, the entries for the “tumor inhibition rate / tumor growth inhibition (TGI)” value in assay [1] and in [1] (listed as cisplatin) were 59.44% and 59.4%, respectively.

As to `CCN(CC)CCCC(C)Nc1ccnc2cc(Cl)ccc12` (stereo not shown) [CQ, chloroquine], the “cell survival rate versus control group” value in the assay on Cal27 cells (24 h) was “not significantly different”. Moreover, the cell survival rate result in the assay with Cal27 cells (48 h) is on record as “more than 80%”.

Take `Cc1cc(C)c2c(n1)S(=O)(=O)c1c-2nc(NCCN(C)C)c2ccccc12` [7ba, 5-((2-(Dimethylamino)ethyl)amino)-7,9-dimethylpyrido[3′,2′:4,5]thieno[3,2-c]isoquinoline 11,11-dioxide]: the concentration for half-maximal inhibition (IC50) is 4.99 ± 2 µM with Cal27 (Homo sapiens, CAL-27, 48 h); 6.33 ± 0.75 µM in the assay on MGC-803 (Homo sapiens, MGC-803, 48 h); 4.59 ± 1.68 µM with ACHN (Homo sapiens, ACHN); 4.66 ± 1.69 µM with SV-HUC-1 (SV-HUC1, 48 h); 6.68 ± 1.5 µM in the assay on NCI-H460 (Homo sapiens, NCI-H460, 48 h); 7.03 ± 1.95 µM with A549 (Homo sapiens, A549, 48 h). Also, the “Topo I inhibitory activity (in words)” value on Topo I is given as “potent Topo I activity”.

Consider `CCN(CC)CCCNc1nc2c(c3ccccc13)S(=O)(=O)c1nc(-c3ccccc3)cc(C)c1-2` [7cg, 5-((3-(Diethylamino)propyl)amino)-7-methyl-9-phenylpyrido[3′,2′:4,5]thieno[3,2-c]isoquinoline 11,11-dioxide], for which the 50% inhibitory concentration (IC50) in the assay with Cal27 (48 h) is 17.7 ± 3.96 µM; with MGC-803 (48 h), 8.22 ± 2.75 µM; in the assay on ACHN, 15.4 ± 3.65 µM; in the assay with SV-HUC-1 (48 h), 15.6 ± 3.18 µM; in the assay with NCI-H460 (48 h) it was 16.6 ± 1.44 µM; with A549 (48 h), 27.1 ± 2.25 µM. The “nicked DNA in the lane (DNA breakage)” value on Topo I is reported as “nicked DNA could be clearly observed”.

In the case of `CCN(CC)CCNc1nc2c(c3ccccc13)S(=O)(=O)c1nc(C)cc(C)c1-2` [7bb, 5-((2-(Diethylamino)ethyl)amino)-7,9-dimethylpyrido[3′,2′:4,5]thieno[3,2-c]isoquinoline 11,11-dioxide], the IC50 came out at 4.89 ± 2.41 µM in the assay with Cal27 (Homo sapiens, CAL-27, 48 h); 6.02 ± 1.59 µM in the assay with MGC-803 (Homo sapiens, MGC-803, 48 h); 5.66 ± 0.54 µM in the assay on ACHN (Homo sapiens, ACHN); 3.57 ± 0.35 µM with SV-HUC-1 (SV-HUC1, 48 h); 7.68 ± 0.88 µM in the assay with NCI-H460 (Homo sapiens, NCI-H460, 48 h); 7.54 ± 2.07 µM in the assay on A549 (Homo sapiens, A549, 48 h). In addition, at Topo I, the “Topo I inhibitory activity (in words)” value is listed as “weak Topo I activity”.
